# Measurements reported in patent US20080248076A1, “ANTIMICROBIAL RUBBER BANDS” (priority 2007, published 2008).
# Values joined by “and” are separate entries in the source; they are usually repeats but may differ in a detail not shown here. Equal values may be shown once.
# Legend:
# [1] = tested on: Escherichia coli; assay: Growth Inhibitor Test (zone of inhibition / kill zone on agar); assay type: cell-based; conditions: E. coli, Standard Methods Agar, 48 hours at 32.0° C; heading says test organism died, assay invalid; Sodium Hypochlorite @ 100 ppm on paper disc
# Description: (§1) Test Scope: The Growth Inhibitor Test was used to determine the toxicity of a rubber band containing zinc pyrithione. Any presence of toxic residues in the test material (rubber band) will inhibit bacterial growth in the agar medium. A zone of inhibition or no growth of test organism around the test material indicates the presence of toxic residues in the test material. The intensity of inhibition is indicative of the concentration of the toxic agent.
# (§2) Test Objective: Four (4) test organisms were used in this assay to determine toxicity. Each organism was suspended in specific agar medium, incubated at 35° C. for 48 hours, and then read to determine growth or no growth of test organism. Each test organism was grown individually in a Petri plate and the test material was planted unto the agar plate to determine the outcome. If no toxic residues were present in the test material, then the test bacteria grew around and under the test medium producing a “lawn effect.” If inhibitory substances were present in the test material, it would diffuse into the agar medium and prevent the growth of bacterial in the medium. The larger the zone of inhibition, the higher the concentration of toxic substances.
# (§3) Test Organisms: The following four (4) organisms were employed: Escherichia coli, Staphylococcus aureus, Pseudomonas aeruginosa, and Pasteurella multocida. Each test organism's concentration was estimated to be 100,000 cfu to 1,000,000 cfu per milliliter.
# (§4) Materials used included: 1. Baird Parker Agar for Staphylococcus aureus; 2. Standard Methods Agar for E. coli and Pseudomonas aeruginosa; 3. Tryptic Soy Agar for Pasteurella multocida; 4. 100 ppm chlorinated water to serve as a positive control; 5. Distilled water to serve as the negative control; 6. Quebec Colony Counter; 7. Incubator at 32.0 C; 8. Petri plates (85 mm diameter); 9. Vernier calibrators; 10.
# [2] = tested on: Pasteurella multocida; assay: as above; assay type: cell-based; conditions: Tryptic Soy Agar, 48 hours at 32.0° C, rubber with 1000 ppm zinc pyrithione, Sodium Hypochlorite @ 100 ppm on paper disc
# Description: as §1, §2, §3, §4
# [3] = tested on: Pseudomonas aeruginosa; assay: as above; assay type: cell-based; conditions: Standard Methods Agar, 48 hours at 32.0° C, rubber with 1000 ppm zinc pyrithione, Sodium Hypochlorite @ 100 ppm on paper disc
# Description: as §1, §2, §3, §4
# [4] = tested on: Staphylococcus aureus; assay: as above; assay type: cell-based; conditions: Baird Parker Agar, 48 hours at 32.0° C, rubber with 1000 ppm zinc pyrithione, Sodium Hypochlorite @ 100 ppm on paper disc
# Description: as §1, §2, §3, §4
# [5] = tested on: Pseudomonas aeruginosa; conditions: it has been reported; cited from earlier work
# [6] = tested on: all of the organisms tested (Escherichia coli, Staphylococcus aureus, Pseudomonas aeruginosa, Pasteurella multocida); assay: Growth Inhibitor Test, overall conclusion; assay type: cell-based; conditions: versus sodium hypochlorite at 100 ppm disinfection concentration
# Description: as §1, §2
# Test Organisms: The following four (4) organisms were employed: Escherichia coli, Staphylococcus aureus, Pseudomonas aeruginosa, and Pasteurella multocida. […]
smiles,measurement,setting,value
OCl [Sodium Hypochlorite],zone of inhibition or kill zone,[1],1.6 cm and 1.4 cm
same,zone of inhibition or kill zone,[2],3.5 cm and 3.2 cm
same,kill zone,[3],3.1 cm and 3.0 cm
same,zone of inhibition or kill zone,[4],3.0 cm and 2.5 cm
Oc1cc(Cl)ccc1Oc1ccc(Cl)cc1Cl [triclosan],efficacy against Pseudomonas aeruginosa,[5],little or no efficacy
"[O-][n+]1ccccc1[S-].[O-][n+]1ccccc1[S-].[Zn+2] [zinc pyrithione, zinc 2-pyridinethiol-n-oxide]",toxicity compared with sodium hypochlorite (similar kill zones),[6],equal to the potency of sodium hypochlorite at 100 ppm
